Experimental findings from patent US10414811B2, “Protease-resistant lipidated GLP-1 analogs” (MEDIMMUNE LIMITED, priority 2015, dated 2019) are described below.

Like-named read-outs stand apart in the source and are kept apart here. Numbered stars: 1 amine (or outer) side, 2 acyl side, 3 side chain; on linkers, the order of the positions; unused ones are H or OH. Square brackets hold non-standard residues; d marks the D form. Side chains are listed from the residue outwards. Peptide text beside a SMILES is read from it. * marks the point of attachment. γGlu = O=C(O)[C@H](CCC(=O)[*:2])N[*:1]; Palmitoyl = CCCCCCCCCCCCCCCC(=O)*; αMeF = C[C@](N)(Cc1ccccc1)C(=O)O; αMeK = C[C@](N)(CCCCN)C(=O)O; Lauroyl = CCCCCCCCCCCC(=O)*; αMeS = C[C@](N)(CO)C(=O)O; AEEA = NCCOCCOCC(=O)O; Aib = CC(C)(N)C(=O)O

Common to all, as to assay type: cell-based
Assay [1] deals with T1, human glucagon receptor (GCGR) (Homo sapiens, UniProt P47871).
T1 construct: expressed in transfected cells
The experiment in a line: cAMP assay, human GCGR cells. Summed up:
(§1)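 Peptide-stimulated cAMP measured by two-step HTRF after a 30 min room-temperature incubation with receptor-expressing cells (hGLP-1R, hGIPR at 1×10^5 cells/ml; hGCGR at 2×10^5 cells/ml). Duplicate dilutions; EC50 from 4-parameter logistic fit of % Delta F.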
A general note: Changes in cAMP serve as a functional read-out for many G protein-coupled receptors.

The target of assay [2] is T2, human GLP-1 receptor (GLP-1R) (Homo sapiens, UniProt P43220).
T2 construct: expressed in transfected cells
The experiment in a line: cAMP assay, human GLP-1R cells. Put shortly:
as §1

The target in assay [3] is T3, human glucose-dependent insulinotropic peptide receptor (GIPR) (Homo sapiens, UniProt P48546).
T3 construct: expressed in transfected cells
T3 sequence (P48546 22-466): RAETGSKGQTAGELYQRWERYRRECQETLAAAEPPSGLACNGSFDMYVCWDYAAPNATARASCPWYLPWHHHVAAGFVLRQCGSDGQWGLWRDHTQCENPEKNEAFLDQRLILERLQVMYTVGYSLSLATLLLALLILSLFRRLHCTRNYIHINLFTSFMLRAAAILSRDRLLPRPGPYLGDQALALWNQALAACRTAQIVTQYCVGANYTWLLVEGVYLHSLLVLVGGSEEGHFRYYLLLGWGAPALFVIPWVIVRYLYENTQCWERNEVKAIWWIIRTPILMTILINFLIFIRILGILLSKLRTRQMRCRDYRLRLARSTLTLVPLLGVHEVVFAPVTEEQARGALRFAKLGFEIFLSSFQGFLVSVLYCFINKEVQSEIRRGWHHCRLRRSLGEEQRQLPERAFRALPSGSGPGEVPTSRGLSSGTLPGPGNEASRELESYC
The assay is described as follows: cAMP assay, human GIPR cells. Summed up: as §1

Assay [4] deals with T4, GLP-1R (INS1e assay) (Rattus norvegicus, UniProt P32301).
T4 construct: endogenous in cells; host or cells: INS-1E cells
T4 sequence (P32301 22-463): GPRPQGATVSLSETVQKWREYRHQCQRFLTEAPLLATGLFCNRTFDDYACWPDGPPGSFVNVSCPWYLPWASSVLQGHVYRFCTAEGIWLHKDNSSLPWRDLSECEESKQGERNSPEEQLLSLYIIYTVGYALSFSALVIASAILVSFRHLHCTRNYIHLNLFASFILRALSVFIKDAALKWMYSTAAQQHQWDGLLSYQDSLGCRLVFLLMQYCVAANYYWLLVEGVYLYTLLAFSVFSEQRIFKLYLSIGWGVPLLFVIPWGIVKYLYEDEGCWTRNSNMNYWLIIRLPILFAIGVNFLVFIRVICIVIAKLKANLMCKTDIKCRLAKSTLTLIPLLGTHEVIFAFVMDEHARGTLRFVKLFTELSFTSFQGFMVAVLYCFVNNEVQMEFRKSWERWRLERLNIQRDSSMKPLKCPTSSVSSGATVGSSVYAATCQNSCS
The assay is described as follows: INS1e assay, cAMP activity at GLP-1R. Put shortly:
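It pairs cAMP-d2 acceptor with anti-cAMP cryptate donor, both prepared 1/20 in conjugate/lysis buffer, applied as a two-step protocol.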

Setting [5] is: cAMP assay, first determination (n1), read-out: Primary assay EC50 Gluc-R (n1).
The mark [6] stands for this setting: cAMP assay, second determination (n2), read-out: Primary assay EC50 Gluc-R (n2).
Where [7] appears, read: cAMP assay, first determination (n1), read-out: Primary assay EC50 GLP-1R n1.
The mark [8] stands for this setting: cAMP assay, second determination (n2), read-out: Primary assay EC50 GLP-1R n2.
[9] abbreviates: mean of n1 and n2, read-out: Mean pM GLP-1R.
The mark [10] stands for this setting: cAMP assay, first determination (n1), read-out: Primary assay EC50 GIP-R (n1).
The mark [11] stands for this setting: cAMP assay, second determination (n2), read-out: Primary assay EC50 GIP-R (n2).
Setting [12] is: mono-lipidated peptides, mean of n1 and n2, read-out: INS1e assay EC50 Mean pM GLP-1R.
[13] abbreviates: mono-lipidated peptides, replicate n1, read-out: INS1e assay EC50 GLP-1R n1.
Setting [14] is: mono-lipidated peptides, replicate n2, read-out: INS1e assay EC50 GLP-1R n2.

T2 sequence (P43220 24-463): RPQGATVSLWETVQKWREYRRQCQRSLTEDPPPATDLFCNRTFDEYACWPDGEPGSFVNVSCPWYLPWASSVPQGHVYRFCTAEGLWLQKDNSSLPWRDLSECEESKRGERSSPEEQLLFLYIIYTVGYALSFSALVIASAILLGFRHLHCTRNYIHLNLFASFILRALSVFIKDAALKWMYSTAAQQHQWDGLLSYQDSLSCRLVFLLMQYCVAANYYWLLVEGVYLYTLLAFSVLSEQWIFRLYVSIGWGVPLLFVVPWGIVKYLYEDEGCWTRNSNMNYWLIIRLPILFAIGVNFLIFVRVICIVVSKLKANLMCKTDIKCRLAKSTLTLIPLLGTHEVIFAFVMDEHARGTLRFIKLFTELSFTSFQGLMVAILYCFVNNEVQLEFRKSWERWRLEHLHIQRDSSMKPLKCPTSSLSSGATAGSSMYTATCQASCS
T1 sequence (P47871 26-477): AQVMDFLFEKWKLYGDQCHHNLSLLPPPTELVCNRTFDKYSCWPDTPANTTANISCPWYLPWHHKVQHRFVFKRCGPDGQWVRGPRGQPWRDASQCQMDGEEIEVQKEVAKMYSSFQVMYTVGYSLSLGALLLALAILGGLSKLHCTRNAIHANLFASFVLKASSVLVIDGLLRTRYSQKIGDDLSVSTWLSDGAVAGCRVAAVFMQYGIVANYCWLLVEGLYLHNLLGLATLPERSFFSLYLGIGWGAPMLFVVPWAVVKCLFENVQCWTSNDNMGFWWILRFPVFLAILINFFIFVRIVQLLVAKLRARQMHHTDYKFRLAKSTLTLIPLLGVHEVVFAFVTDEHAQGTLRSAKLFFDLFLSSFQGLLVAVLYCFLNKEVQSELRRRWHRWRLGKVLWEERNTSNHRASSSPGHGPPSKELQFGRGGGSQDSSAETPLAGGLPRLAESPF

For the compound `CCCCCCCCCCCC(=O)N[C@@H](CCC(=O)NCCOCCOCC(=O)NCCOCCOCC(=O)NCCCC[C@H](NC(=O)[C@H](C)NC(=O)[C@@H](NC(=O)[C@H](Cc1ccccc1)NC(=O)[C@H](CCC(=O)O)NC(=O)[C@](C)(CCCCN)NC(=O)[C@H](C)NC(=O)[C@H](CCCCNC(=O)COCCOCCNC(=O)COCCOCCNC(=O)CC[C@H](NC(=O)CCCCCCCCCCC)C(=O)O)NC(=O)[C@H](CCC(=O)O)NC(=O)CNC(=O)[C@H](CCC(=O)O)NC(=O)[C@H](CCCCNC(=O)COCCOCCNC(=O)COCCOCCNC(=O)CC[C@H](NC(=O)CCCCCCCCCCC)C(=O)O)NC(=O)[C@H](Cc1ccc(O)cc1)NC(=O)[C@H](CO)NC(=O)[C@](C)(CO)NC(=O)[C@@H](NC(=O)[C@H](CC(=O)O)NC(=O)[C@H](CO)NC(=O)[C@@H](NC(=O)[C@](C)(Cc1ccccc1)NC(=O)[C@H](CO)NC(=O)CNC(=O)[C@H](CCC(=O)O)NC(=O)C(C)(C)NC(=O)[C@@H](N)Cc1c[nH]cn1)[C@@H](C)O)C(C)C)[C@@H](C)CC)C(=O)N[C@H](C(=O)N[C@H](C(=O)N[C@@H](CCC(=O)O)C(=O)NCC(=O)NCC(N)=O)C(C)C)C(C)C)C(=O)O` [compound 469] (H-H[Aib]EGS[αMeF]TSDV[αMeS]SYK([AEEA-AEEA-γGlu-Lauroyl])EGEK([AEEA-AEEA-γGlu-Lauroyl])A[αMeK]EFIAK([AEEA-AEEA-γGlu-Lauroyl])VVEGG-NH2; N-terminus assumed), the EC50 was determined as 19.8 nM in assay [1] (tris-lipidated peptides, second replicate, read-out: Primary assay EC50 Gluc-R (n2)); 45.4 pM in assay [2] (tris-lipidated peptides, mean of n1 and n2, read-out: Primary assay EC50 Mean pM GLP-1R); 41.8 pM in assay [2] (tris-lipidated peptides, replicate n1, read-out: Primary assay EC50 GLP-1R n1); 49 pM in assay [2] (tris-lipidated peptides, replicate n2, read-out: Primary assay EC50 GLP-1R n2); 19.8 nM in assay [3] (tris-lipidated peptides, second replicate, read-out: Primary assay EC50 GIP-R (n2)); 4900 pM in assay [4] (tris-lipidated peptides, mean of n1 and n2, read-out: INS1e assay EC50 Mean pM GLP-1R). The EC50 in assay [4] (tris-lipidated peptides, replicate n1, read-out: INS1e assay EC50 GLP-1R n1) was 6900 pM; in assay [4] (tris-lipidated peptides, replicate n2, read-out: INS1e assay EC50 GLP-1R n2), 2890 pM.
Consider `CC[C@H](C)[C@H](NC(=O)[C@](C)(Cc1ccccc1)NC(=O)[C@H](CCC(=O)O)NC(=O)[C@H](CCC(=O)O)NC(=O)[C@H](C)NC(=O)[C@H](C)NC(=O)[C@H](CCC(=O)O)NC(=O)CNC(=O)[C@H](CCC(=O)O)NC(=O)[C@H](CC(C)C)NC(=O)[C@](C)(Cc1ccccc1)NC(=O)[C@H](CO)NC(=O)[C@](C)(CO)NC(=O)[C@@H](NC(=O)[C@H](CC(=O)O)NC(=O)[C@H](CO)NC(=O)[C@@H](NC(=O)[C@](C)(Cc1ccccc1)NC(=O)[C@H](CO)NC(=O)CNC(=O)[C@H](CCC(=O)O)NC(=O)C(C)(C)NC(=O)[C@@H](N)Cc1c[nH]cn1)[C@@H](C)O)C(C)C)C(=O)N[C@@H](C)C(=O)N[C@@](C)(Cc1ccccc1)C(=O)N[C@H](C(=O)N[C@H](C(=O)N[C@@](C)(CCCCN)C(=O)NCC(=O)NCC(N)=O)C(C)C)C(C)C` [compound 42] (H-H[Aib]EGS[αMeF]TSDV[αMeS]S[αMeF]LEGEAAEE[αMeF]IA[αMeF]VV[αMeK]GG-NH2), for which the EC50 in assay [1] (setting [5]) is at least 31 nM; in assay [1] (setting [6]), at least 31 nM; in assay [2] (setting [7]), 6.9 pM; in assay [2] (setting [8]) it was 11 pM; in assay [2] (setting [9]), 8.7 pM; in assay [3] (setting [10]), at least 31 nM. Further, the EC50 was at least 31 nM in assay [3] (setting [11]), 187 pM in assay [4] (setting [12]), 207 pM in assay [4] (setting [13]) and 167 pM in assay [4] (setting [14]).
For `CCCCCCCCCCCC(=O)NCCCCCC(=O)NCCCCCC(=O)NCCCCCC(=O)NCCCC[C@H](NC(=O)[C@@H](NC(=O)[C@@H](NC(=O)[C@](C)(Cc1ccccc1)NC(=O)[C@H](C)NC(=O)[C@@H](NC(=O)[C@](C)(Cc1ccccc1)NC(=O)[C@H](CCC(=O)O)NC(=O)[C@](C)(CCCCN)NC(=O)[C@H](C)NC(=O)[C@H](C)NC(=O)[C@H](CCC(=O)O)NC(=O)CNC(=O)[C@H](CCC(=O)O)NC(=O)[C@H](CC(C)C)NC(=O)[C@](C)(Cc1ccccc1)NC(=O)[C@H](CO)NC(=O)[C@](C)(CO)NC(=O)[C@@H](NC(=O)[C@H](CC(=O)O)NC(=O)[C@H](CO)NC(=O)[C@@H](NC(=O)[C@](C)(Cc1ccccc1)NC(=O)[C@H](CO)NC(=O)CNC(=O)[C@H](CCC(=O)O)NC(=O)C(C)(C)NC(=O)[C@@H](N)Cc1c[nH]cn1)[C@@H](C)O)C(C)C)[C@@H](C)CC)C(C)C)C(C)C)C(=O)NCC(=O)NCC(N)=O` [compound 169], the EC50 in assay [1] (setting [5]) is at least 27 nM; in assay [1] (setting [6]) it was at least 27 nM; in assay [2] (setting [7]) it was 3.4 pM; in assay [2] (setting [8]) it was 1.7 pM; in assay [2] (setting [9]), 2.6 pM; in assay [3] (setting [10]) it was at least 27 nM. The EC50 is at least 27 nM in assay [3] (setting [11]), 181 pM in assay [4] (setting [12]), 93.1 pM in assay [4] (setting [13]) and 269 pM in assay [4] (setting [14]).
As for `CCCCCCCCCCCCCCCC(=O)N[C@@H](CCC(=O)NCCCC[C@H](NC(=O)[C@](C)(Cc1ccccc1)NC(=O)[C@H](CO)NC(=O)[C@](C)(CO)NC(=O)[C@@H](NC(=O)[C@H](CC(=O)O)NC(=O)[C@H](CO)NC(=O)[C@@H](NC(=O)[C@](C)(Cc1ccccc1)NC(=O)[C@H](CO)NC(=O)CNC(=O)[C@H](CCC(=O)O)NC(=O)C(C)(C)NC(=O)[C@@H](N)Cc1c[nH]cn1)[C@@H](C)O)C(C)C)C(=O)N[C@@H](CCC(=O)O)C(=O)NCC(=O)N[C@@H](CCC(=O)O)C(=O)N[C@@H](C)C(=O)N[C@@H](C)C(=O)N[C@@](C)(CCCCN)C(=O)N[C@@H](CCC(=O)O)C(=O)N[C@@](C)(Cc1ccccc1)C(=O)N[C@H](C(=O)N[C@@H](C)C(=O)N[C@@](C)(Cc1ccccc1)C(=O)N[C@H](C(=O)N[C@H](C(=O)N[C@@](C)(CCCCN)C(=O)NCC(=O)NCC(N)=O)C(C)C)C(C)C)[C@@H](C)CC)C(=O)O` [compound 86] (H-H[Aib]EGS[αMeF]TSDV[αMeS]S[αMeF]K([γGlu-Palmitoyl])EGEAA[αMeK]E[αMeF]IA[αMeF]VV[αMeK]GG-NH2), the EC50 in assay [1] (setting [5]) is at least 28 nM; in assay [1] (setting [6]) it was at least 28 nM; in assay [2] (setting [7]) it was 1.3 pM; in assay [2] (setting [8]), 1.7 pM; in assay [2] (setting [9]), 1.5 pM; in assay [3] (setting [10]), at least 28 nM. In addition, the EC50 was at least 28 nM in assay [3] (setting [11]), 65 pM in assay [4] (setting [12]), 45.3 pM in assay [4] (setting [13]) and 84.5 pM in assay [4] (setting [14]).
